Experimental data published in US20140072557A1, “MEDICINAL AGENT FOR SUPPRESSING MALIGNANT TUMOR METASTASIS” (priority 2011, published 2014).

Legend:
[1] = test system: HUVEC cell layer; experiment: Implantation of A549 cells into HUVEC cell layer; format: cell-based, human; details: VEGF+hANP (1 μM)
Protocol: (§1) Normal human umbilical cord vein endothelial cells (HUVEC) were purchased from Takara Bio, Inc. Medium preparation and subculture were performed according to the package insert. Nuclear staining was performed using TOPRO3 (purchased from Invitrogen), and immunostaining of VE-cadherin was performed using anti-VE-cadherin antibody (purchased from BD Biosciences). p After culturing the HUVEC to confluent and replacing the medium with a serum free medium, nuclear staining and immunostaining using anti-VE-cadherin antibody were performed in the presence or absence of VEGF and hANP to observe the expression of VE-cadherin.
In the presence of VEGF alone, the expression of VE-cadherin decreased, and intercellular gaps were observed. […] Further, in the presence of VEGF alone, when A549 cells were added onto the HUVEC cell layer, implantation of the A549 cells into the HUVEC cell layer was observed.

[2] = test system: lung cancer patients; experiment: Cancer recurrence after cancer resection surgery in lung cancer patients; format: in vivo, human; details: hANP 0.025 μg/kg/min continuous from surgery for 3 days, about 2 years follow-up, stages IA-III
Protocol: It is reported that lung cancer patients whose BNP level in the blood is 30 pg/mL or higher are at high risk of postsurgical complications after a cancer removal surgery. In this experiment, lung cancer patients were measured for the BNP level in the blood before cancer removal surgery. A part of the patients having the BNP level in the blood of 30 pg/mL or higher and patients judged to be at high risk of postsurgical complications by the doctor in charge were assigned to the hANP group (52 patients in total; cancer stage breakdown was IA: 26 patients […], IB: 16 patients […], II: 7 patients […], and III: 3 patients (6%)). The control group consisted of patients assigned regardless of the BNP level in the blood (287 patients in total, cancer stage breakdown was IA: 155 patients (54%), IB: 65 patients (23%), II: 35 patients (12%), and III: 32 patients (11%)). To the hANP group, hANP (trade name: HAMP for INJECTION 1000, non-bolus, made by DAIICHI SANKYO Co., Ltd.) was continuously administered at 0.025 μg/kg/min starting during the surgery of lung cancer and the administration continued for 3 days after surgery. Before the surgery and for 4 days after surgery, each patient was measured for the blood pressure (systolic and diastolic), the heart rate, and the urine volume. […]

[3] = test system: HUVEC; experiment: VE-cadherin expression and intercellular adhesion of confluent HUVEC with VEGF; format: cell-based, human; details: VEGF+hANP
Protocol: as §1

CC[C@H](C)[C@@H]1NC(=O)[C@H](CCCNC(=N)N)NC(=O)[C@H](CC(=O)O)NC(=O)[C@H](CCSC)NC(=O)[C@H](CCCNC(=N)N)NC(=O)CNC(=O)CNC(=O)[C@H](Cc2ccccc2)NC(=O)[C@@H](NC(=O)[C@H](CO)NC(=O)[C@H](CO)NC(=O)[C@H](CCCNC(=N)N)NC(=O)[C@H](CCCNC(=N)N)NC(=O)[C@H](CC(C)C)NC(=O)[C@@H](N)CO)CSSC[C@@H](C(=O)N[C@@H](CC(N)=O)C(=O)N[C@@H](CO)C(=O)N[C@@H](Cc2ccccc2)C(=O)N[C@@H](CCCNC(=N)N)C(=O)N[C@@H](Cc2ccc(O)cc2)C(=O)O)NC(=O)CNC(=O)[C@H](CC(C)C)NC(=O)CNC(=O)[C@H](CO)NC(=O)[C@H](CCC(N)=O)NC(=O)[C@H](C)NC(=O)CNC1=O [hANP, carperitide]
implantation of A549 cells into the HUVEC cell layer [1]: this phenomenon of implantation was suppressed | early recurrence of cancer (recurrence-free survival) [2]: early recurrence was not observed | decrease of VE-cadherin expression and intercellular gaps caused by VEGF [3]: this phenomenon was suppressed
